≈ marks a conversion by molar mass, not a printed value.
Key:
[1] = tested on: Streptococcus pyogenes C203; test: In vivo therapeutic efficacy in experimental pulmonary infection in mice; conditions: CD1 mice, death observed for 7 days, probit analysis; for PD50 1 hour after infection: single oral dose 1 hour after intranasal infection; for PD50 24 hours before infection: single oral dose 24 hours before intranasal infection
Experimental: The therapeutic efficacy, expressed as the 50% protective dose (PD50), of the compounds of formula (I) was evaluated in the experimental pulmonary infection induced in mice by Streptococcus pyogenes C203.
Charles River albino mice (strain CD1) weighing 23-25 g were used, kept in groups of 6 to a cage and fed normally with a standard diet and water ad libitum.
A suspension of Streptococcus pyogenes C203 (equal to about 10^8 CFU) in tryptone broth (0.05 ml) was administered intranasally to each mouse, anaesthetized with a mixture of ethyl ether and chloroform.
The compounds of formula I and the clarithromycin reference compounds were administered orally in a single dose, as a 0.5% suspension Methocel® 1 hour after the infection and 24 hours before the infection.
Observation of the death of the mice was continued for 7 days after the infection.
The PD50, expressed as μmol/kg, was calculated by means of probit analysis.

[2] = tested on: S. aureus 77; test: In vitro antibacterial activity (MIC), broth dilution micromethod; type: cell-based, Staphylococcus aureus; conditions: erythromycin-resistant strain; MHB, 37° C., 18 hours
Experimental: (§1) The minimum inhibitory concentrations (MIC), with respect to Gram-positive bacteria (erythromycin-sensitive and -resistant strains) and Gram-negative bacteria, were determined by means of the broth-scaler dilution micromethod in twin series [National Committee for Clinical Laboratory Standards, 1990; Methods for dilution antimicrobial susceptibility tests for bacteria that grow aerobically; Approved standards M7-A2-NCCLS, Villanova, Pa.], using Mueller Hinton Broth (MHB) as culture medium.
(§2) Azithromycin [The Merck Index, XIIth Edition, No. 946) was used as reference macrolide.
(§3) The MIC values, expressed in μg/ml, were determined after incubating the microplates at 37° C. for 18 hours, by evaluating the lowest concentration of antibiotic capable of inhibiting bacterial growth.

[3] = tested on: S. aureus 929; test: as above; type: cell-based, Staphylococcus aureus; conditions: erythromycin-resistant strain; MHB, 37° C., 18 hours
Experimental: as §1, §2, §3

[4] = tested on: S. haemolyticus 161; test: as above; type: cell-based, Staphylococcus haemolyticus; conditions: erythromycin-resistant strain; MHB, 37° C., 18 hours
Experimental: as §1, §2, §3

[5] = tested on: S. specie 916; test: as above; type: cell-based, Staphylococcus spp.; conditions: erythromycin-resistant (inducible) strain; MHB, 37° C., 18 hours
Experimental: as §1, §2, §3

[6] = tested on: S. epidermis 60; test: as above; type: cell-based, Staphylococcus spp.; conditions: erythromycin-resistant (inducible) strain; MHB, 37° C., 18 hours
Experimental: as §1, §2, §3

[7] = tested on: S. coag. Neg. 845; test: as above; type: cell-based, Staphylococcus spp.; conditions: erythromycin-resistant strain; MHB, 37° C., 18 hours
Experimental: as §1, §2, §3

[8] = tested on: S. pneumoniae 1035; test: as above; type: cell-based, Streptococcus pneumoniae; conditions: erythromycin-resistant strain; MHB with 5% horse serum, 37° C., 18 hours
Experimental: as §1
(§4) In the case of Streptococcus pneumoniae, the medium was supplemented with 5% horse serum.
as §2, §3

[9] = tested on: S. pneumoniae 1051; test: as above; type: cell-based, Streptococcus pneumoniae; conditions: erythromycin-resistant strain; MHB with 5% horse serum, 37° C., 18 hours
Experimental: as §1, §4, §2, §3

[10] = tested on: S. pneumoniae 1047; test: as above; type: cell-based, Streptococcus pneumoniae; conditions: erythromycin-resistant strain; MHB with 5% horse serum, 37° C., 18 hours
Experimental: as §1, §4, §2, §3

`CC[C@H]1OC(=O)[C@H](C)[C@@H](O[C@H]2C[C@@](C)(OC)[C@@H](O)[C@H](C)O2)[C@H](C)[C@@H](O[C@@H]2O[C@H](C)C[C@H](N(C)C)[C@H]2O)[C@](C)(O)C[C@@H](C)/C(=N\OCCN(C)CCCCCCNCc2csc(-n3ccnc3)n2)[C@H](C)[C@@H](O)[C@]1(C)O` [Compound 6] was tested, and the “PD50 1 hour after infection” value [1] was 10.1 µmol/kg, the “PD50 24 hours before infection” value [1] was 16.0 µmol/kg and the “MIC S. aureus 77” value [2] was >64 µg/mL. The “MIC S. aureus 929” value [3] was >64 µg/mL, the “MIC S. haemolyticus 161” value [4] was >64 µg/mL and the “MIC S. specie 916*” value [5] was 4 µg/mL (≈ 3.74 µM). For the same compound, the “MIC S. epidermis 60*” value [6] was 2 µg/mL (≈ 1.87 µM), the “MIC S. coag. Neg. 845” value [7] was >64 µg/mL and the “MIC S. pneumoniae 1035” value [8] was 0.5 µg/mL (≈ 0.468 µM). The “MIC S. pneumoniae 1051” value [9] was 0.25 µg/mL (≈ 0.234 µM) and the “MIC S. pneumoniae 1047” value [10] was 1 µg/mL (≈ 0.936 µM).

`CC[C@H]1OC(=O)[C@H](C)[C@@H](O[C@H]2C[C@@](C)(OC)[C@@H](O)[C@H](C)O2)[C@H](C)[C@@H](O[C@@H]2O[C@H](C)C[C@H](N(C)C)[C@H]2O)[C@](C)(O)C[C@@H](C)/C(=N\OCCN(C)CCCCCCNCc2csc(-n3cccn3)n2)[C@H](C)[C@@H](O)[C@]1(C)O` [Compound 11, Erythromycin A (E)-9-[O-[2-[methyl[6-[(2-pyrazol-1-ylthiazol-4-ylmethyl]amino]hexyl]amino]ethyl]oxime]] was tested, and the “PD50 1 hour after infection” value [1] was 11.2 µmol/kg, the “PD50 24 hours before infection” value [1] was 25.4 µmol/kg and the “MIC S. aureus 77” value [2] was >64 µg/mL. The “MIC S. aureus 929” value [3] was >64 µg/mL, the “MIC S. haemolyticus 161” value [4] was >64 µg/mL and the “MIC S. specie 916*” value [5] was 8 µg/mL (≈ 7.49 µM). The “MIC S. epidermis 60*” value [6] was 2 µg/mL (≈ 1.87 µM), the “MIC S. coag. Neg. 845” value [7] was >64 µg/mL and the “MIC S. pneumoniae 1035” value [8] was 0.0625 µg/mL (≈ 0.0585 µM). The “MIC S. pneumoniae 1051” value [9] was 0.125 µg/mL (≈ 0.117 µM) and the “MIC S. pneumoniae 1047” value [10] was 0.5 µg/mL (≈ 0.468 µM).
